Patent US9187465B2, “Oxazole tyrosine kinase inhibitors” (Sareum Limited, priority 2007, dated 2015)

How the values were obtained:
Format in all cases: biochemical
human FLT4 = target: T1, human FLT4 (Homo sapiens, UniProt P35916); test: FLT4 kinase assay (DELFIA enzyme inhibition); details: read-out: FLT4 IC50
T1 construct: a construct expressing the human FLT4 (789-1207) with an amino terminal GST tag; host or cells: Sf9 insect cells (baculovirus)
Outline: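 GST-tagged human FLT4 (789-1207) from Sf9 cells phosphorylates a biotinylated MET (Tyr1253)-derived peptide for 30 min at room temperature, stopped with EDTA. Phosphopeptide is captured on Neutravidin and detected with Eu-labelled anti-phosphotyrosine antibody by time-resolved fluorescence; IC50 from % inhibition curves.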

human FLT3 = target: T2, human FLT3 (Homo sapiens, UniProt P36888); test: FLT3 kinase assay (DELFIA enzyme inhibition)
T2 construct: a construct expressing the human FLT3 (564-993) with an amino terminal GST tag; host or cells: Sf9 insect cells (baculovirus)
T2 sequence (P36888 564-993): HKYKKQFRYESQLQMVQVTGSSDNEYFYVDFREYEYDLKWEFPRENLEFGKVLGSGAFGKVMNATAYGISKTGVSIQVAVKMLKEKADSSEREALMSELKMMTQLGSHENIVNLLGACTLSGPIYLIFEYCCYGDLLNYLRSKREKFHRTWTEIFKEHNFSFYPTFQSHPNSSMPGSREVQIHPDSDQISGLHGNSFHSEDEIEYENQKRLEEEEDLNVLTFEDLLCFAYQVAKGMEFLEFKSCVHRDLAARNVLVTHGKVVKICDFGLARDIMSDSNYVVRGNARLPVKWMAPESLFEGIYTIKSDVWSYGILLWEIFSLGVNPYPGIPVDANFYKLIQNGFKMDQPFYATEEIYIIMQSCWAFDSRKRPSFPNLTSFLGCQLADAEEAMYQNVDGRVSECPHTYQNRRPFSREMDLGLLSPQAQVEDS
Experimental: A GST-kinase fusion protein of 70 KDa was produced using sf9 baculovirus expression system, with a construct expressing the human FLT3 (564-993) with an amino terminal GST tag. The protein was purified by one-step affinity chromatography using glutathione-agarose.
FLT3 enzyme activity is determined using a Dissociation Enhanced Lanthanide Fluorescent Immunoassay (DELFIA) with a peptide substrate derived from the Gastrin Precursor (Tyr 87) peptide […] with a core sequence: EAYGW.
The amount of phosphorylated peptide produced is detected by means of a phospho-Tyrosine specific Europium-labelled antibody using Time-Resolved Fluorescence at Excitation 360-35 nm and Emission 620-35 nm.
Assay reactions are set up in a 25 uL final volume on a 96 well plate. […] The reaction is allowed to proceed for 30 minutes at room temperature before stopping with 100 μL Stop solution comprising of 100 mM EDTA, 1×BSA blocker in TBS (Perbio) and 0.05% Surfact-Amps20 (Perbio).
The stopped reaction is transferred to a black 96-well Neutravidin-coated plate (Perbio) and incubated for 30 minutes to capture the biotinylated peptide substrate. After washing wells 3 times with 200 uL TBS/T buffer, Anti-Phospho-Tyr-100 antibody labelled with Eu—N1 (Perkin Elmer AD0159) is added to all wells for 60 minutes at room temperature. After a repeat washing step, DELFIA Enhancement solution (Perkin Elmer) is added to all wells for 5 minutes and the fluorescence measured on a plate reader Analyst HT (Molecular Devices).
The % inhibition of the activity is calculated and plotted in order to determine the concentration of test compound required to inhibit 50% of the enzyme activity (IC50).

human Aurora A = target: T3, human Aurora A (Homo sapiens, UniProt O14965); test: Aurora A kinase assay (DELFIA enzyme inhibition); details: read-out: Aurora A IC50
T3 construct: Histidine tag (N); host or cells: Sf9 insect cells (baculovirus)
T3 sequence (O14965 1-403): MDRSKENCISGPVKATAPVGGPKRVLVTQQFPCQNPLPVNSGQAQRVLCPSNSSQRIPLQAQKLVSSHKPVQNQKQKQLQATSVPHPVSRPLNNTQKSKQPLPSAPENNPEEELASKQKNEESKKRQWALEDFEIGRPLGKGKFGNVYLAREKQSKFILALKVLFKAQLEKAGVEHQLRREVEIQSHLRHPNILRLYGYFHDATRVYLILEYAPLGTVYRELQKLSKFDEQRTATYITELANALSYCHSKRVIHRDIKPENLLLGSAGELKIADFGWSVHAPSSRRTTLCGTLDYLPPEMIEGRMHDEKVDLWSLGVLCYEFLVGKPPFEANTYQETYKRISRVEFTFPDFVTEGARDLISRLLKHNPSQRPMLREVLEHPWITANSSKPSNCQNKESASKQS
Outline: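 DELFIA read-out (time-resolved Eu fluorescence, 620 nm emission) after Neutravidin capture of biotinylated peptide substrate and antibody detection. Reaction: Ni-agarose-purified Aurora A, 30 min at room temperature, stopped with 100 mM EDTA.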

T1 sequence (P35916 789-1207): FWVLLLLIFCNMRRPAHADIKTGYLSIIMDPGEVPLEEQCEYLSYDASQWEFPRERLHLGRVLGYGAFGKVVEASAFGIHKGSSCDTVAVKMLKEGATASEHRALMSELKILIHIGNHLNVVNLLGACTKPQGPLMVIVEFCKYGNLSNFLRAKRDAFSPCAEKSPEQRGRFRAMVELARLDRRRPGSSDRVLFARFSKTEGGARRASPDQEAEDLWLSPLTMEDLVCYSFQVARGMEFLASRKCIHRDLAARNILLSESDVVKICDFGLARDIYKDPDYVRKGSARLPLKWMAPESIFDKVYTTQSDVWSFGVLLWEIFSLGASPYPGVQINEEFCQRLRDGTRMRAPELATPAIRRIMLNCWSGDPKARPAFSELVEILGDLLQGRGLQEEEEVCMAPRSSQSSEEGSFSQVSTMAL

SMILES	IC50 (human FLT4) [µM]	IC50 (human FLT3) [µM]	IC50 (human Aurora A) [µM]
NC(=O)c1nc(-c2c(F)cccc2F)oc1Nc1ccc(-n2ccnc2)cc1 [Example Q-24, 5-(4-(1H-imidazol-1-yl)phenylamino)-2-(2,6-difluorophenyl)oxazole-4-carboxamide]	< 10	< 10	< 10
NC(=O)c1nc(-c2c(F)cccc2F)oc1Nc1ccc(S(N)(=O)=O)cc1 [Example Q-25, 2-(2,6-difluorophenyl)-5-(4-(sulfonamide)phenylamino)oxazole-4-carboxamide]	< 10	< 10	< 10
CNS(=O)(=O)c1ccc(Nc2oc(-c3c(F)cccc3F)nc2C(N)=O)cc1 [Example Q-27, 2-(2,6-difluorophenyl)-5-(4-(N′-methylsulfonamide)phenylamino)oxazole-4-carboxamide]	< 10	< 10	< 10
NC(=O)c1nc(-c2c(F)cccc2F)oc1Nc1ccc(S(=O)(=O)N2CCOCC2)cc1 [Example Q-29, 2-(2,6-difluorophenyl)-5-(4-(morpholinosulfonyl)phenylamino)oxazole-4-carboxamide]	< 10	< 10	< 10
NC(=O)c1nc(-c2c(F)cccc2F)oc1Nc1ccc(-n2cncn2)cc1 [Example Q-30, 5-(4-(1H-1,2,4-triazol-1-yl)phenylamino)-2-(2,6-difluorophenyl)oxazole-4-carboxamide]	< 10	< 100	< 10
NC(=O)c1nc(-c2c(F)cccc2F)oc1Nc1ccc(-n2cnnn2)cc1 [Example Q-31, 5-(4-(1H-tetrazol-1-yl)phenylamino)-2-(2,6-difluorophenyl)oxazole-4-carboxamide]	< 10	< 10	< 10
NC(=O)c1nc(-c2c(F)cccc2F)oc1Nc1ccc(C2=NNC(=O)C2)cc1 [Example Q-32, 2-(2,6-difluorophenyl)-5-(4-(5-oxo-4,5-dihydro-1H-pyrazol-3-yl)phenylamino)oxazole-4-carboxamide]	< 10	< 10	< 10
NC(=O)c1nc(-c2c(F)cccc2F)oc1Nc1ccc(-c2cc(CO)on2)cc1 [Example Q-33, 2-(2,6-difluorophenyl)-5-(4-(5-(hydroxymethyl)isoxazol-3-yl)phenylamino)oxazole-4-carboxamide]	< 10	< 100	< 10
NC(=O)c1nc(-c2c(F)cccc2F)oc1Nc1ccc(-c2nnn[nH]2)cc1 [Example Q-34, 5-(4-(1H-tetrazol-5-yl)phenylamino)-2-(2,6-difluorophenyl)oxazole-4-carboxamide]	< 10	< 10	< 10
NC(=O)c1nc(-c2c(Cl)cccc2Cl)oc1Nc1ccc(N2CCNCC2)cc1 [Example Q-35, 2-(2,6-dichlorophenyl)-5-(4-(piperazin-1-yl)phenylamino)oxazole-4-carboxamide]	< 10	< 10	< 10
Cc1cccc(C)c1-c1nc(C(N)=O)c(Nc2ccc(N3CCNCC3)cc2)o1 [Example Q-37, 2-(2,6-dimethylphenyl)-5-(4-(piperazin-1-yl)phenylamino)oxazole-4-carboxamide]	< 10	< 10	< 10
NC(=O)c1nc(-c2c(F)cccc2F)oc1Nc1ccc(N2CCNCC2)nc1 [Example Q-47, 2-(2,6-difluorophenyl)-5-(6-(piperazin-1-yl)pyridin-3-ylamino)oxazole-4-carboxamide]	< 10	< 10	< 10
NC(=O)c1nc(-c2c(F)cccc2F)oc1Nc1ccc(CN2CCCCC2)cc1 [Example Q-56, 2-(2,6-difluorophenyl)-5-(4-(piperidin-1-ylmethyl)phenylamino)oxazole-4-carboxamide]	< 10	< 10	< 10
CS(=O)(=O)c1ccc(Nc2oc(-c3cccc4[nH]ncc34)nc2C(N)=O)cc1 [Example Q-58, 2-(1H-indazol-4-yl)-5-(4-(methylsulfonyl)phenylamino)oxazole-4-carboxamide]	< 10	< 10	< 10
NC(=O)c1nc(-c2cccc3[nH]ncc23)oc1Nc1ccc(N2CCN(C(=O)C(F)(F)F)CC2)cc1 [Example Q-60, 2-(1H-indazol-4-yl)-5-(4-(4-(2,2,2-trifluoroacetyl)piperazin-1-yl)phenylamino)oxazole-4-carboxamide]	< 10	< 10	< 10

Results, then the compound that gave them:

IC50 (human FLT4) [µM]	IC50 (human FLT3) [µM]	IC50 (human Aurora A) [µM]	SMILES
< 10	< 10	< 10	COc1ccc(-c2oc(Nc3ccccc3)nc2C(N)=O)cc1 [Example R-1, 5-(4-methoxyphenyl)-2-(phenylamino)oxazole-4-carboxamide]
< 10	< 10	< 10	COc1ccc(-c2oc(Nc3ccccc3OC)nc2C(N)=O)cc1 [Example R-2, 5-(4-methoxyphenyl)-2-(2-methoxyphenylamino)oxazole-4-carboxamide]
< 10	< 10	< 10	COc1ccc(-c2oc(Nc3ccccc3C)nc2C(N)=O)cc1 [Example R-5, 2-(o-toluidino)-5-(4-methoxyphenyl)oxazole-4-carboxamide]
< 10	< 10	< 10	COc1ccc(-c2oc(Nc3ccccc3F)nc2C(N)=O)cc1 [Example R-8, 2-(2-fluorophenylamino)-5-(4-methoxyphenyl)oxazole-4-carboxamide]
< 10	< 10	< 10	COc1cccc(Nc2nc(C(N)=O)c(-c3ccc(N4CCNCC4)cc3)o2)c1 [Example R-12, 2-(3-methoxyphenylamino)-5-(4-(piperazin-1-yl)phenyl)oxazole-4-carboxamide]
< 10	< 10	< 10	NC(=O)c1nc(Nc2cccnc2)oc1-c1ccc(N2CCNCC2)cc1 [Example R-14, 5-(4-(piperazin-1-yl)phenyl)-2-(pyridin-3-ylamino)oxazole-4-carboxamide]
< 10	< 10	< 10	NC(=O)c1nc(Nc2ccc3[nH]ncc3c2)oc1-c1ccc(N2CCNCC2)cc1 [Example R-15, 2-(1H-indazol-5-ylamino)-5-(4-(piperazin-1-yl)phenyl)oxazole-4-carboxamide]
< 10	< 10	< 10	NC(=O)c1nc(Nc2ccc3cn[nH]c3c2)oc1-c1ccc(N2CCNCC2)cc1 [Example R-16, 2-(1H-indazol-6-ylamino)-5-(4-(piperazin-1-yl)phenyl)oxazole-4-carboxamide]
< 10	< 10	< 10	NC(=O)c1nc(Nc2cnn(Cc3ccccc3)c2)oc1-c1ccc(N2CCNCC2)cc1 [Example R-17, 2-(1-benzyl-1H-pyrazol-4-ylamino)-5-(4-(piperazin-1-yl)phenyl)oxazole-4-carboxamide]
